{
  "source": "patent US8952024B2",
  "about": "“Herbicidal pyrimidone derivatives” (E I du Pont de Nemours and Company, priority 2009, dated 2015)",
  "assay_type_in_all_cases": "in vivo",
  "key": {"[1]": {"system": "chickweed (Stellaria media)", "assay": "Test B postemergence plant response", "details": "Postemergence", "summary_of_the_method": "(§1)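 Plants at the 1- to 4-leaf stage (2 to 18 cm tall), grown in pots of peat moss/vermiculite medium with wetting agent and starter nutrients, received postemergence applications of test chemicals. After 13 to 15 days in a greenhouse, injury was rated visually against untreated controls on a 0 (no effect) to 100 (complete control) scale.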"}, "[2]": {"system": "canarygrass (Phalaris minor)", "assay": "Test B postemergence plant response", "details": "Postemergence", "summary_of_the_method": "as §1"}, "[3]": {"system": "winter barley (Hordeum vulgare)", "assay": "Test B postemergence plant response", "details": "Postemergence", "summary_of_the_method": "as §1"}, "[4]": {"system": "windgrass (Apera spica-venti)", "assay": "Test B postemergence plant response", "details": "Apera spica-venti, post-emergence, 360 h; Postemergence, 125 g ai/ha; visual rating after 13 to 15 days, scale 0 (no effect) to 100 (complete control)", "summary_of_the_method": "as §1"}, "[5]": {"system": "umbrella sedge (Cyperus difformis)", "assay": "Test B flooded paddy test", "details": "Cyperus difformis, 360 h", "summary_of_the_method": "(§2)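 Rice, umbrella sedge, ducksalad and barnyardgrass were grown to the 2-leaf stage, flooded to 3 cm, and compound was applied directly to the paddy water, with that depth kept throughout. After 13 to 15 days in the greenhouse, plants were visually rated against controls on a 0 (no effect) to 100 (complete control) scale.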"}, "[6]": {"system": "barnyardgrass (Echinochloa crus-galli)", "assay": "Test B flooded paddy test", "details": "Echinochloa crus-galli, 360 h", "summary_of_the_method": "as §2"}, "rice (Oryza sativa)": {"system": "rice (Oryza sativa)", "assay": "Test B flooded paddy test", "details": "Oryza sativa", "summary_of_the_method": "as §2"}, "[7]": {"system": "ducksalad (Heteranthera limosa)", "assay": "Test B flooded paddy test", "details": "Heteranthera limosa, 360 h", "summary_of_the_method": "as §2"}, "[8]": {"system": "morningglory (Ipomoea coccinea)", "assay": "Test B pre-/postemergence plant response", "summary_of_the_method": "(§3)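 Visually scored on a 0 to 100 scale after 13 to 15 days in greenhouse versus controls. Treatments were preemergence on seeded loam/sand soil and postemergence on 1- to 4-leaf plants.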"}, "[9]": {"system": "sunflower (common oilseed sunflower, Helianthus annuus)", "assay": "Test B pre-/postemergence plant response", "details": "Preemergence", "summary_of_the_method": "as §3"}, "[10]": {"system": "galium (catchweed bedstraw, Galium aparine)", "assay": "Test B pre-/postemergence plant response", "details": "Preemergence", "summary_of_the_method": "as §3"}, "[11]": {"system": "nightshade (eastern black nightshade, Solanum ptycanthum)", "assay": "Test B pre-/postemergence plant response", "details": "Preemergence", "summary_of_the_method": "as §3"}, "[12]": {"system": "bermudagrass (Cynodon dactylon)", "assay": "Test B pre-/postemergence plant response", "details": "for pest or weed control at 31 g/ha: 31 g ai/ha, scale 0 to 100 (0 no effect, 100 complete control)", "summary_of_the_method": "as §3"}, "[13]": {"details": "Preemergence, 125 g ai/ha, 0 to 100 scale"}, "[14]": {"details": "31 g ai/ha, scale 0 to 100 (0 no effect, 100 complete control)"}, "[15]": {"details": "62 g ai/ha, scale 0 to 100, 0 no effect, 100 complete control"}},
  "note": "Where two headings read alike, the source gives them in different places.",
  "data": [
    {"smiles": "Cc1c(F)cccc1-n1c(-c2ccccc2)ncc(C(=O)C2=C(O)CCCC2=O)c1=O", "note": "[Compound 47, 3-(3-fluoro-2-methylphenyl)-5-[(2-hydroxy-6-oxo-1-cyclohexen-1-yl)carbonyl]-2-phenyl-4(3H)-pyrimidinone]", "values": [
      {"measurement": "Chickweed plant response rating", "setting": "[1]; 250 g ai/ha, scale 0 to 100", "value": 100},
      {"measurement": "pest or weed control at 31 g/ha", "setting": "[1]; Stellaria media, post-emergence, 360 h, 31 g ai/ha, scale 0 to 100 (0 no effect, 100 complete control), read-out: Plant response rating, Chickweed", "value": 85, "unit": "%"},
      {"measurement": "pest or weed control at 62 g/ha", "setting": "[1]; Stellaria media, post-emergence, 360 h, 62 g ai/ha, scale 0 (no effect) to 100 (complete control), 13 to 15 days, read-out: Plant response rating, Chickweed", "value": 98, "unit": "%"},
      {"measurement": "pest or weed control at 125 g/ha", "setting": "[1]; Stellaria media, post-emergence, 360 h, 125 g ai/ha, visual rating after 13 to 15 days, scale 0 (no effect) to 100 (complete control)", "value": 100, "unit": "%"},
      {"measurement": "pest or weed control at 31 g/ha", "setting": "[2]; Phalaris minor, post-emergence, 360 h, 31 g ai/ha, scale 0 to 100 (0 no effect, 100 complete control), read-out: Plant response rating, Canarygrass", "value": 20, "unit": "%"},
      {"measurement": "pest or weed control at 62 g/ha", "setting": "[2]; Phalaris minor, post-emergence, 360 h, 62 g ai/ha, scale 0 (no effect) to 100 (complete control), 13 to 15 days, read-out: Plant response rating, Canarygrass", "value": 30, "unit": "%"},
      {"measurement": "pest or weed control at 125 g/ha", "setting": "[2]; Phalaris minor, post-emergence, 360 h, 125 g ai/ha, visual rating after 13 to 15 days, scale 0 (no effect) to 100 (complete control)", "value": 40, "unit": "%"},
      {"measurement": "Canarygrass plant response rating", "setting": "[2]; 250 g ai/ha, scale 0 to 100", "value": 40},
      {"measurement": "plant injury at 31 g/ha", "setting": "[3]; Hordeum vulgare, post-emergence, 31 g ai/ha, scale 0 to 100 (0 no effect, 100 complete control), read-out: Plant response rating, Barley", "value": 5, "unit": "%"},
      {"measurement": "plant injury at 62 g/ha", "setting": "[3]; Hordeum vulgare, post-emergence, 62 g ai/ha, scale 0 (no effect) to 100 (complete control), 13 to 15 days, read-out: Plant response rating, Barley", "value": 10, "unit": "%"},
      {"measurement": "plant injury at 125 g/ha", "setting": "[3]; Hordeum vulgare, post-emergence, 125 g ai/ha, visual rating after 13 to 15 days, scale 0 (no effect) to 100 (complete control)", "value": 10, "unit": "%"},
      {"measurement": "Barley plant response rating", "setting": "[3]; 250 g ai/ha, scale 0 to 100", "value": 35},
      {"measurement": "pest or weed control at 125 g/ha", "setting": "[4]", "value": 80, "unit": "%"},
      {"measurement": "pest or weed control at 250 g/ha", "setting": "[5]; 250 g ai/ha, flooded paddy test, visual rating on 0 to 100 scale (0 no effect, 100 complete control) after 13 to 15 days, read-out: Plant response rating, Flood, Sedge, Umbrella", "value": 85, "unit": "%"},
      {"measurement": "pest or weed control at 62 g/ha", "setting": "[5]; Flood (flooded paddy test), 62 g ai/ha, scale of 0 to 100 where 0 is no effect and 100 is complete control, 13 to 15 days, read-out: Plant response rating, Sedge, Umbrella", "value": 70, "unit": "%"},
      {"measurement": "pest or weed control at 250 g/ha", "setting": "[6]; 250 g ai/ha, flooded paddy test, visual rating on 0 to 100 scale (0 no effect, 100 complete control) after 13 to 15 days, read-out: Plant response rating, Flood, Barnyardgrass", "value": 20, "unit": "%"},
      {"measurement": "pest or weed control at 62 g/ha", "setting": "[6]; Flood (flooded paddy test), 62 g ai/ha, scale of 0 to 100 where 0 is no effect and 100 is complete control, 13 to 15 days, read-out: Plant response rating, Barnyardgrass", "value": 0, "unit": "%"},
      {"measurement": "plant injury at 250 g/ha", "setting": "rice (Oryza sativa); 250 g ai/ha, flooded paddy test, visual rating on 0 to 100 scale (0 no effect, 100 complete control) after 13 to 15 days, read-out: Plant response rating, Flood, Rice", "value": 25, "unit": "%"},
      {"measurement": "plant injury at 62 g/ha", "setting": "rice (Oryza sativa); Flood (flooded paddy test), 62 g ai/ha, scale of 0 to 100 where 0 is no effect and 100 is complete control, 13 to 15 days, read-out: Plant response rating, Rice", "value": 15, "unit": "%"},
      {"measurement": "pest or weed control at 250 g/ha", "setting": "[7]; 250 g ai/ha, flooded paddy test, visual rating on 0 to 100 scale (0 no effect, 100 complete control) after 13 to 15 days, read-out: Plant response rating, Flood, Ducksalad", "value": 95, "unit": "%"},
      {"measurement": "pest or weed control at 62 g/ha", "setting": "[7]; Flood (flooded paddy test), 62 g ai/ha, scale of 0 to 100 where 0 is no effect and 100 is complete control, 13 to 15 days, read-out: Plant response rating, Ducksalad", "value": 65, "unit": "%"},
      {"measurement": "pest or weed control at 62 g/ha", "setting": "[8]; Ipomoea, post-emergence, Postemergence, 62 g ai/ha, scale 0 (no effect) to 100 (complete control), 13 to 15 days, read-out: Plant response rating, Morningglory", "value": 80, "unit": "%"},
      {"measurement": "pest or weed control at 125 g/ha", "setting": "[8]; Ipomoea, post-emergence, Postemergence, 125 g ai/ha, visual rating after 13 to 15 days, scale 0 (no effect) to 100 (complete control)", "value": 90, "unit": "%"},
      {"measurement": "pest or weed control at 250 g/ha", "setting": "[8]; Ipomoea, pre-emergence, 250 g ai/ha, Preemergence, 0 to 100 scale, read-out: Plant response rating, Morningglory", "value": 55, "unit": "%"},
      {"measurement": "pest or weed control at 31 g/ha", "setting": "[8]; Ipomoea, pre-emergence, Preemergence, 31 g ai/ha, scale 0 to 100 (0 no effect, 100 complete control), read-out: Plant response rating, Morningglory", "value": 0, "unit": "%"},
      {"measurement": "Morningglory plant response rating", "setting": "[8]; [13]", "value": 0},
      {"measurement": "Plant response rating, Sunflower", "setting": "[9]; 250 g ai/ha, 0 to 100 scale", "value": 85},
      {"measurement": "Plant response rating, Sunflower", "setting": "[9]; [14]", "value": 65},
      {"measurement": "Sunflower plant response rating", "setting": "[9]; 125 g ai/ha, 0 to 100 scale", "value": 80},
      {"measurement": "Plant response rating, Galium", "setting": "[10]; 250 g ai/ha, 0 to 100 scale", "value": 95},
      {"measurement": "Plant response rating, Galium", "setting": "[10]; [14]", "value": 50},
      {"measurement": "Plant response rating, Galium", "setting": "[10]; [15]", "value": 50},
      {"measurement": "Galium plant response rating", "setting": "[10]; 125 g ai/ha, 0 to 100 scale", "value": 50},
      {"measurement": "Plant response rating, Nightshade", "setting": "[11]; 250 g ai/ha, 0 to 100 scale", "value": 100},
      {"measurement": "Plant response rating, Nightshade", "setting": "[11]; [14]", "value": 100},
      {"measurement": "Plant response rating, Nightshade", "setting": "[11]; [15]", "value": 100},
      {"measurement": "Nightshade plant response rating", "setting": "[11]; 125 g ai/ha, 0 to 100 scale", "value": 100},
      {"measurement": "pest or weed control at 31 g/ha", "setting": "[12]; Cynodon dactylon, post-emergence, Postemergence, read-out: Plant response rating, Bermudagrass", "value": 85, "unit": "%"},
      {"measurement": "pest or weed control at 125 g/ha", "setting": "[12]; Cynodon dactylon, post-emergence, Postemergence, 125 g ai/ha, visual rating after 13 to 15 days, scale 0 (no effect) to 100 (complete control)", "value": 98, "unit": "%"},
      {"measurement": "pest or weed control at 250 g/ha", "setting": "[12]; Cynodon dactylon, pre-emergence, 250 g ai/ha, Preemergence, 0 to 100 scale, read-out: Plant response rating, Bermudagrass", "value": 100, "unit": "%"},
      {"measurement": "pest or weed control at 31 g/ha", "setting": "[12]; Cynodon dactylon, pre-emergence, Preemergence, read-out: Plant response rating, Bermudagrass", "value": 100, "unit": "%"},
      {"measurement": "pest or weed control at 62 g/ha", "setting": "[12]; Cynodon dactylon, pre-emergence, Preemergence, 62 g ai/ha, scale 0 to 100, 0 no effect, 100 complete control, read-out: Plant response rating, Bermudagrass", "value": 100, "unit": "%"},
      {"measurement": "Bermudagrass plant response rating", "setting": "[12]; [13]", "value": 100}
    ]}
  ]
}
